Molecular target: T1, ΔF508-CFTR (Homo sapiens, UniProt P13569, DEL508-508)
T1 construct: expressed in transfected cells
Experiment: Membrane potential optical assay (FRET voltage-sensor dyes, VIPR), identification of potentiator compounds
Format: cell-based
Conditions: Table 3; assay not given; read-out: % Activity (% Efficacy, relative efficacy)
Outline: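 NIH3T3 mouse fibroblasts stably expressing ΔF508-CFTR, cultured 24 h at 27 °C, were loaded with FRET voltage dyes CC2-DMPE and DiSBAC2(3). Double-addition format: first addition of Cl⁻-free (gluconate) medium with or without compound; membrane-potential change read as fluorescence on VIPR II.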

T1 sequence (P13569 with tags, fused parts or gaps DEL508-508): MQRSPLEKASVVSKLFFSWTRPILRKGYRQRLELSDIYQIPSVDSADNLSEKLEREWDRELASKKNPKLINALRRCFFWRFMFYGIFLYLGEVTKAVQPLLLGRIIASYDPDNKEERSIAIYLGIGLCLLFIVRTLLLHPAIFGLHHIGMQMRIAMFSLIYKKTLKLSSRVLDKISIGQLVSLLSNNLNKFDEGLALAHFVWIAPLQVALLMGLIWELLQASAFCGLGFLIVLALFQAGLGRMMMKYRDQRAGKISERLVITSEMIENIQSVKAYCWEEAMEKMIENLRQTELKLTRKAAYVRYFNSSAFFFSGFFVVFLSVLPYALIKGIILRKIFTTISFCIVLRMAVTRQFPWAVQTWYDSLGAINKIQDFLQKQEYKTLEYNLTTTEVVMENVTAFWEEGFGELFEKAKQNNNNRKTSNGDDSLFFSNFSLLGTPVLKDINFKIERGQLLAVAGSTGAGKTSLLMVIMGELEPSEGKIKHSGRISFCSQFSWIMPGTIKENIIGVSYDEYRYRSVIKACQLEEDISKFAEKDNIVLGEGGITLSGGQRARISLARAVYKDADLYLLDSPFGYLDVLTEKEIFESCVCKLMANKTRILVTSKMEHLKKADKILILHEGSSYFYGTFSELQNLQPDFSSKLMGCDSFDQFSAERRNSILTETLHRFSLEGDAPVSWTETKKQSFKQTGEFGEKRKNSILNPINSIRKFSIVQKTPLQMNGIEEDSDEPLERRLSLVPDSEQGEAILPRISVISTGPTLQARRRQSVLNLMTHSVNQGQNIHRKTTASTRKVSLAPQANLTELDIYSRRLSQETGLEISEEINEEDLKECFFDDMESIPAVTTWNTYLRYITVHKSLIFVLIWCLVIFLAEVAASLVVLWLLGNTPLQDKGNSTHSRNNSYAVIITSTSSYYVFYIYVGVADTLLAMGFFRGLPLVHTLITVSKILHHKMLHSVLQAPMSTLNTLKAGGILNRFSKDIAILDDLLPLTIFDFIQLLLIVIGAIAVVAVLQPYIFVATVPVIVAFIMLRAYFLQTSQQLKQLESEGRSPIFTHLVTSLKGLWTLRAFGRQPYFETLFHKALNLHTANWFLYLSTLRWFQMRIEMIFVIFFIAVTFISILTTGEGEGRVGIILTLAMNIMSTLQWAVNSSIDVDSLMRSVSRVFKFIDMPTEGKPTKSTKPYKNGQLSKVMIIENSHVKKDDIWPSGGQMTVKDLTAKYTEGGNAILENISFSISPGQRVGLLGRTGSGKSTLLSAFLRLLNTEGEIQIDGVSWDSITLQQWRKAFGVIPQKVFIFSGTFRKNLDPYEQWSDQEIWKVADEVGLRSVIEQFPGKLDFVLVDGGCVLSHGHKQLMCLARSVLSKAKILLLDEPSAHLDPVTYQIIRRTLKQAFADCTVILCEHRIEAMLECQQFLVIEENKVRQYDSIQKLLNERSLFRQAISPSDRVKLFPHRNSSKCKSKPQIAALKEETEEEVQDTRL

Row | Emax [%] | Structure (SMILES)
1 | 25 to 100 | CC(C)c1ccc(NC(=O)c2c[nH]c3ccc(F)cc3c2=O)c(C(F)(F)F)c1 [Compound 557, 6-fluoro-N-[4-isopropyl-2-(trifluoromethyl)phenyl]-4-oxo-1H-quinoline-3-carboxamide]
2 | 25 to 100 | CCCc1ccc(NC(=O)c2c[nH]c3ccccc3c2=O)cc1NC(=O)OCC [Compound 382, [5-[(4-oxo-1H-quinolin-3-yl)carbonylamino]-2-propyl-phenyl]aminoformic acid ethyl ester]
3 | < 25 | CC(C)(C)c1ccc(NC(=O)c2c[nH]c3ccccc3c2=O)cc1CN [Compound 390, N-[3-(Aminomethyl)-4-tert-butyl-phenyl]-4-oxo-1H-quinoline-3-carboxamide]
4 | 25 to 100 | CC(C)(C)c1cc2cc[nH]c2cc1NC(=O)c1c[nH]c2cccc(F)c2c1=O [Compound 656, 5-fluoro-4-oxo-N-(5-tert-butyl-1H-indol-6-yl)-1H-quinoline-3-carboxamide]
5 | 25 to 100 | O=C(Nc1ccccc1SC(F)(F)F)c1c[nH]c2ccccc2c1=O [Compound 371, 4-oxo-N-[2-(trifluoromethylsulfanyl)phenyl]-1H-quinoline-3-carboxamide]
6 | 25 to 100 | CC(C)(C)c1cc(C(C)(C)C)c(NC(=O)c2c[nH]c3ccc(Br)cc3c2=O)cc1O [Compound 553, 6-bromo-N-(5-hydroxy-2,4-ditert-butyl-phenyl)-4-oxo-1H-quinoline-3-carboxamide]
7 | 25 to 100 | CCOC(=O)C(C)(C)c1ccc(NC(=O)c2c[nH]c3ccccc3c2=O)cc1 [Compound 420, 2-methyl-2-[4-[(4-oxo-1H-quinolin-3-yl)carbonylamino]phenyl]-propanoic acid ethyl ester]
8 | < 25 | CC(C)(C)c1cc(C(C)(C)C)c(NC(=O)c2c[nH]c3c(C#N)cccc3c2=O)cc1O [Compound 505, 8-cyano-N-(5-hydroxy-2,4-ditert-butyl-phenyl)-4-oxo-1H-quinoline-3-carboxamide]
9 | 25 to 100 | CC(C)c1ccc(-c2ccccc2NC(=O)c2c[nH]c3ccccc3c2=O)cc1 [Compound 432, N-[2-(4-isopropylphenyl)phenyl]-4-oxo-1H-quinoline-3-carboxamide]
10 | 25 to 100 | CC(C)(C)c1cc(C(F)(F)F)c(NC(=O)c2c[nH]c3ccc(F)cc3c2=O)cc1O [Compound 509, 6-fluoro-N-[5-hydroxy-4-tert-butyl-2-(trifluoromethyl)phenyl]-4-oxo-1H-quinoline-3-carboxamide]
11 | 25 to 100 | O=C(Nc1cc(O)c(Cl)cc1F)c1c[nH]c2ccccc2c1=O [Compound 695, N-(4-chloro-2-fluoro-5-hydroxy-phenyl)-4-oxo-1H-quinoline-3-carboxamide]
12 | 25 to 100 | O=C(Nc1cc(O)cc(C(F)(F)F)c1)c1c[nH]c2cccc(O)c2c1=O [Compound 599, 5-hydroxy-N-[3-hydroxy-5-(trifluoromethyl)phenyl]-4-oxo-1H-quinoline-3-carboxamide]
13 | 25 to 100 | CCCOC(=O)NCC(C)(C)c1ccc(NC(=O)c2c[nH]c3ccccc3c2=O)cc1 [Compound 416, [2-methyl-2-[4-[(4-oxo-1H-quinolin-3-yl)carbonylamino]phenyl]-propyl]aminoformic acid propyl ester]
14 | < 25 | CCc1cccc2c(=O)c(C(=O)Nc3ccc(C(C)C)cc3C(F)(F)F)c[nH]c12 [Compound 682, 8-ethyl-N-[4-isopropyl-2-(trifluoromethyl)phenyl]-4-oxo-1H-quinoline-3-carboxamide]
15 | 25 to 100 | N#Cc1cc(N2CCCC2)ccc1NC(=O)c1c[nH]c2ccccc2c1=O [Compound 622, N-(2-cyano-4-pyrrolidin-1-yl-phenyl)-4-oxo-1H-quinoline-3-carboxamide]
16 | 25 to 100 | O=C(Nc1cc2[nH]ccc2cc1F)c1c[nH]c2cccc(O)c2c1=O [Compound 596, N-(5-fluoro-1H-indol-6-yl)-5-hydroxy-4-oxo-1H-quinoline-3-carboxamide]
17 | 25 to 100 | O=C(Nc1ccccc1-c1ccc(C(F)(F)F)cc1)c1c[nH]c2ccccc2c1=O [Compound 366, 4-oxo-N-[2-[4-(trifluoromethyl)phenyl]phenyl]-1H-quinoline-3-carboxamide]
18 | < 25 | CSc1nc2ccccc2c(O)c1C(=O)Nc1ccc2cc[nH]c2c1 [Compound 374, 4-hydroxy-N-(1H-indol-6-yl)-2-methylsulfanyl-quinoline-3-carboxamide]
19 | 25 to 100 | O=C(Nc1cc(N2CCCC2)cc(C(F)(F)F)c1)c1c[nH]c2ccccc2c1=O [Compound 593, 4-oxo-N-[3-pyrrolidin-1-yl-5-(trifluoromethyl)phenyl]-1H-quinoline-3-carboxamide]
20 | < 25 | CC(C)(C)c1cc(F)c(NC(=O)c2c[nH]c3c(C(F)(F)F)cccc3c2=O)cc1O [Compound 638, N-(2-fluoro-5-hydroxy-4-tert-butyl-phenyl)-4-oxo-8-(trifluoromethyl)-1H-quinoline-3-carboxamide]
21 | 25 to 100 | CC(C)(C)c1cc(C(C)(C)C)c(NC(=O)c2c[nH]c3c(F)ccc(F)c3c2=O)cc1O [Compound 718, 5,8-difluoro-N-(5-hydroxy-2,4-ditert-butyl-phenyl)-4-oxo-1H-quinoline-3-carboxamide]
22 | 25 to 100 | CC(C)(C)c1ccc(NC(=O)c2c[nH]c3cccc(O)c3c2=O)cc1O [Compound 633, 5-hydroxy-N-(3-hydroxy-4-tert-butyl-phenyl)-4-oxo-1H-quinoline-3-carboxamide]

The next lines start with the molecule.

Row | Structure (SMILES) | Emax [%]
23 | COc1ccccc1-c1ccccc1NC(=O)c1c[nH]c2ccccc2c1=O [Compound 355, N-[2-(2-methoxyphenyl)phenyl]-4-oxo-1H-quinoline-3-carboxamide] | 25 to 100
24 | O=C(Nc1ccccc1-c1cccc(OC(F)(F)F)c1)c1c[nH]c2ccccc2c1=O [Compound 253, 4-oxo-N-[2-[3-(trifluoromethoxy)phenyl]phenyl]-1H-quinoline-3-carboxamide] | 25 to 100
25 | Cc1ccc(NC(=O)c2c[nH]c3ccccc3c2=O)nc1 [Compound 195, N-(5-methyl-2-pyridyl)-4-oxo-1H-quinoline-3-carboxamide] | < 25
26 | Cc1c[nH]c2cc(NC(=O)c3c[nH]c4ccccc4c3=O)ccc12 [Compound 113, N-(3-methyl-1H-indol-6-yl)-4-oxo-1H-quinoline-3-carboxamide] | 25 to 100
27 | O=C(Nc1cc(Cl)cc(NS(=O)(=O)CCN2CCCCC2)c1)c1c[nH]c2ccccc2c1=O [Compound 133, N-[3-chloro-5-[2-(1-piperidyl)ethylsulfonylamino]phenyl]-4-oxo-1H-quinoline-3-carboxamide] | 25 to 100
28 | CC(C)(C)c1ccc(N)cc1NC(=O)c1c[nH]c2ccccc2c1=O [Compound 260, N-(5-Amino-2-tert-butyl-phenyl)-4-oxo-1H-quinoline-3-carboxamide] | 25 to 100
29 | COc1c(N)cc(C(C)(C)C)cc1NC(=O)c1c[nH]c2ccccc2c1=O [Compound 55, N-(3-amino-2-methoxy-5-tert-butyl-phenyl)-4-oxo-1H-quinoline-3-carboxamide] | < 25
30 | O=C(Nc1ccccc1C(F)(F)F)c1c[nH]c2ccccc2c1=O [Compound 111, 4-oxo-N-[2-(trifluoromethyl)phenyl]-1H-quinoline-3-carboxamide] | 25 to 100
31 | O=C(Nc1ccc2cc[nH]c2c1)c1cnc2cc(C(F)(F)F)cc(C(F)(F)F)c2c1O [Compound 130, 4-hydroxy-N-(1H-indol-6-yl)-5,7-bis(trifluoromethyl)quinoline-3-carboxamide] | 25 to 100
32 | O=C(Nc1ccccc1-c1ccc(F)c(Cl)c1)c1c[nH]c2ccccc2c1=O [Compound 190, N-[2-(3-chloro-4-fluoro-phenyl)phenyl]-4-oxo-1H-quinoline-3-carboxamide] | 25 to 100
33 | CCCc1ccc(N(C)C)cc1NC(=O)c1c[nH]c2ccccc2c1=O [Compound 98, N-(5-dimethylamino-2-propyl-phenyl)-4-oxo-1H-quinoline-3-carboxamide] | 25 to 100
34 | O=C(Nc1cccnc1)c1c[nH]c2ccccc2c1=O [Compound 168, 4-oxo-N-(3-pyridyl)-1H-quinoline-3-carboxamide] | < 25
35 | CC(C)c1c[nH]c2cc(NC(=O)c3c[nH]c4ccccc4c3=O)ccc12 [Compound 357, N-(3-isopropyl-1H-indol-6-yl)-4-oxo-1H-quinoline-3-carboxamide] | 25 to 100
36 | CC(C)(C)c1cc(F)c(NC(=O)c2c[nH]c3ccccc3c2=O)cc1O [Compound 143, N-(2-fluoro-5-hydroxy-4-tert-butyl-phenyl)-4-oxo-1H-quinoline-3-carboxamide] | 25 to 100
37 | O=C(Nc1ccccc1-c1cccc(Cl)c1Cl)c1c[nH]c2ccccc2c1=O [Compound 171, N-[2-(2,3-dichlorophenyl)phenyl]-4-oxo-1H-quinoline-3-carboxamide] | 25 to 100
38 | CC(=O)c1ccc(-c2ccccc2NC(=O)c2c[nH]c3ccccc3c2=O)s1 [Compound 174, N-[2-(5-acetyl-2-thienyl)phenyl]-4-oxo-1H-quinoline-3-carboxamide] | 25 to 100
39 | O=C(Nc1ccc2cc[nH]c2c1)c1cnc2ccc(Cl)cc2c1O [Compound 358, 6-chloro-4-hydroxy-N-(1H-indol-6-yl)quinoline-3-carboxamide] | 25 to 100
40 | COC(=O)Oc1c(NC(=O)c2c[nH]c3ccccc3c2=O)cc(F)cc1C(C)(C)C [Compound 288, N-(5-fluoro-2-methoxycarbonyloxy-3-tert-butyl-phenyl)-4-oxo-1H-quinoline-3-carboxamide] | 25 to 100
41 | O=C(Nc1ccc2[nH]c(=O)[nH]c2c1)c1c[nH]c2ccccc2c1=O [Compound 64, 4-oxo-N-(2-oxo-1,3-dihydrobenzoimidazol-5-yl)-1H-quinoline-3-carboxamide] | < 25
42 | O=C(Nc1cc(NS(=O)(=O)CCN2CCCCC2)cc(C(F)(F)F)c1)c1c[nH]c2ccccc2c1=O [Compound 318, 4-Oxo-N-[3-[2-(1-piperidyl)ethylsulfonylamino]-5-(trifluoromethyl)phenyl]-1H-quinoline-3-carboxamide] | 25 to 100

Source: patent publication US8802700B2 (Vertex Pharmaceuticals Incorporated, priority 2010, dated 2014)
